Laboratory results taken from patent publication US8080423B2, “Reagent containing protease reaction promoter and/or colorant stabilizer” (Asahi Kasei Pharma Corporation, priority 2004, dated 2011).

Tests used:
Format in all cases: physicochemical
[1] = Screening of stabilizer for colorant, MBTH-TOOS (Example 13); conditions: MBTH-TOOS, 37° C.; for blank (distilled water) change in absorbance: 570 nm, additives at conc. (1%; IDA 1 mM; Zn, Al 0.1 mM; ferrocyanide 0.01 mM; sorbitol 5%; DMSO 10%)
[2] = Screening of stabilizer for colorant, overall statements (Example 13); conditions: Tables 2-1 and 2-2
Experimental: (§1) Tween-20 (1%), Brij35 (1%), Triton X-100 (1%), deoxycholic acid (1%), imino-diacetic acid (IDA; 1 mM), ZnSO4 (0.1 mM), AlCl3 (0.1 mM), potassium ferrocyanate (0.01 mM), sorbitol (5%), glucose (5%), sodium nitrite (2 mM), dimethylsulfoxide (DMSO; 10%) (those substances are manufactured by Wako Pure Chemical Industries, Inc.), 2-hydroxypropyl-β-cyclodextrin (2HP β CD; 0.5%, 2%, 5%) and methyl-β-cyclodextrin (M β CD; 0.5%, 2%, 5%) (those substances are manufactured by Nihon Shokuhin Kako Co., Ltd.).
(§2) 500 μl of the R-1 reagent and 500 μl of the R-2 which had been incubated to 37° C. were mixed. The mixture was incubated to 37° C. for 2 minutes, and absorbance thereof (A0) was measured. The mixture was added with 10 μl of 500 μM hydrogen peroxide or distilled water. The whole was incubated to 37° C., and absorbance exactly 5 minutes after the addition of hydrogen peroxide (A1) was measured, to calculate a change in absorbance ΔA (A1-A0). The absorbance was measured using a wavelength of 750 nm when DA64 was used as the colorant, a wavelength of 660 nm when DA67 was used as the colorant, and a wavelength of 570 nm when 4-AA-TOOS was used as the colorant.
(§3) Immediately after the preparation of the reagent, the reagent was preserved at 37° C. for 2 days and 9 days, and measurement of sensitivity of a blank which was distilled water and of hydrogen peroxide was performed.

[3] = Screening of stabilizer for colorant, DA64 (Example 13); conditions: 37° C.; for blank (distilled water) change in absorbance: DA-64, 750 nm, additives at conc. (1%; IDA 1 mM; Zn, Al 0.1 mM; ferrocyanide 0.01 mM; sorbitol 5%; DMSO 10%); for change in absorbance when 500 μM of hydrogen peroxide was measured: DA-64
Experimental: (§4) The following substances were used as test samples. Note that concentrations described in parentheses each represent a final concentration of the substance in the reagent R-1.
as §1, §2, §3

[4] = Screening of stabilizer for colorant, DA67 (Example 13); conditions: 37° C.; for blank (distilled water) change in absorbance: DA-67, 660 nm; for change in absorbance when 500 μM of hydrogen peroxide was measured: DA-67
Experimental: as §4, §1, §2, §3

[5] = 0 days, additives at conc. (1%; IDA 1 mM; Zn, Al 0.1 mM; ferrocyanide 0.01 mM; sorbitol 5%; DMSO 10%)
[6] = 2 days, additives at conc. (1%; IDA 1 mM; Zn, Al 0.1 mM; ferrocyanide 0.01 mM; sorbitol 5%; DMSO 10%)
[7] = 9 days, additives at b284 conc. (Zn, Al 0.1 mM; ferrocyanide 0.01 mM)

| Substance | blank (distilled water) change in absorbance ([1]; 0 days) | blank (distilled water) change in absorbance ([1]; 2 days) | change in absorbance when 500 μM of hydrogen peroxide was measured ([1]; 0 days, cyclodextrin 0.5%) | change in absorbance when 500 μM of hydrogen peroxide was measured ([1]; 0 days, cyclodextrin 2.0%) | change in absorbance when 500 μM of hydrogen peroxide was measured ([1]; 0 days, cyclodextrin 5.0%) | change in absorbance when 500 μM of hydrogen peroxide was measured ([1]; 2 days, cyclodextrin 0.5%) | change in absorbance when 500 μM of hydrogen peroxide was measured ([1]; 2 days, cyclodextrin 2.0%) | change in absorbance when 500 μM of hydrogen peroxide was measured ([1]; 2 days, cyclodextrin 5.0%) | effect on the blank during preservation (in words) [2] | blank (distilled water) change in absorbance ([3]; 0 days) | blank (distilled water) change in absorbance ([3]; 2 days) | blank (distilled water) change in absorbance ([3]; 9 days) | change in absorbance when 500 μM of hydrogen peroxide was measured ([3]; 0 days, cyclodextrin 0.5%) | change in absorbance when 500 μM of hydrogen peroxide was measured ([3]; 0 days, cyclodextrin 2.0%) | change in absorbance when 500 μM of hydrogen peroxide was measured ([3]; 0 days, cyclodextrin 5.0%) | change in absorbance when 500 μM of hydrogen peroxide was measured ([3]; 2 days, cyclodextrin 0.5%) | change in absorbance when 500 μM of hydrogen peroxide was measured ([3]; 2 days, cyclodextrin 2.0%) | change in absorbance when 500 μM of hydrogen peroxide was measured ([3]; 2 days, cyclodextrin 5.0%) | change in absorbance when 500 μM of hydrogen peroxide was measured ([3]; 9 days, cyclodextrin 0.5%) | change in absorbance when 500 μM of hydrogen peroxide was measured ([3]; 9 days, cyclodextrin 2.0%) | also measured |
| --- | --- | --- | --- | --- | --- | --- | --- | --- | --- | --- | --- | --- | --- | --- | --- | --- | --- | --- | --- | --- | --- |
| 2-hydroxypropyl-β-cyclodextrin [2HPβCD] | 0.166 Abs | 0.815 Abs | 0.199 | 0.200 | 0.203 | 0.145 | 0.155 | 0.159 | suppressing effects on the blank | −0.007 Abs | 0.007 Abs | 0.010 Abs | 0.375 | 0.386 | 0.385 | 0.315 | 0.322 | 0.326 | 0.251 | 0.269 | change in absorbance when 500 μM of hydrogen peroxide was measured ([3]; 9 days, cyclodextrin 5.0%): 0.271; blank (distilled water) change in absorbance [4, 5]: 0.119 Abs; blank (distilled water) change in absorbance [4, 6]: 0.762 Abs; blank (distilled water) change in absorbance [4, 7]: 1.822 Abs; change in absorbance when 500 μM of hydrogen peroxide was measured ([4]; 0 days, cyclodextrin 0.5%): 0.531; change in absorbance when 500 μM of hydrogen peroxide was measured ([4]; 0 days, cyclodextrin 2.0%): 0.522; change in absorbance when 500 μM of hydrogen peroxide was measured ([4]; 0 days, cyclodextrin 5.0%): 0.528; change in absorbance when 500 μM of hydrogen peroxide was measured ([4]; 2 days, cyclodextrin 0.5%): 0.301; change in absorbance when 500 μM of hydrogen peroxide was measured ([4]; 2 days, cyclodextrin 2.0%): 0.306; change in absorbance when 500 μM of hydrogen peroxide was measured ([4]; 2 days, cyclodextrin 5.0%): 0.309; change in absorbance when 500 μM of hydrogen peroxide was measured ([4]; 9 days, cyclodextrin 0.5%): 0.277; change in absorbance when 500 μM of hydrogen peroxide was measured ([4]; 9 days, cyclodextrin 2.0%): 0.279; change in absorbance when 500 μM of hydrogen peroxide was measured ([4]; 9 days, cyclodextrin 5.0%): 0.281 |
| methyl-β-cyclodextrin [MβCD] | 0.115 Abs | 0.757 Abs | 0.175 | 0.18 | 0.181 | 0.135 | 0.136 | 0.145 | suppressing effects on the blank | −0.01 Abs | 0.005 Abs | 0.006 Abs | 0.371 | 0.376 | 0.365 | 0.302 | 0.309 | 0.315 | 0.266 | 0.271 | change in absorbance when 500 μM of hydrogen peroxide was measured ([3]; 9 days, cyclodextrin 5.0%): 0.273; blank (distilled water) change in absorbance [4, 5]: 0.133 Abs; blank (distilled water) change in absorbance [4, 6]: 0.657 Abs; blank (distilled water) change in absorbance [4, 7]: 1.430 Abs; change in absorbance when 500 μM of hydrogen peroxide was measured ([4]; 0 days, cyclodextrin 0.5%): 0.516; change in absorbance when 500 μM of hydrogen peroxide was measured ([4]; 0 days, cyclodextrin 2.0%): 0.519; change in absorbance when 500 μM of hydrogen peroxide was measured ([4]; 0 days, cyclodextrin 5.0%): 0.515; change in absorbance when 500 μM of hydrogen peroxide was measured ([4]; 2 days, cyclodextrin 0.5%): 0.355; change in absorbance when 500 μM of hydrogen peroxide was measured ([4]; 2 days, cyclodextrin 2.0%): 0.361; change in absorbance when 500 μM of hydrogen peroxide was measured ([4]; 2 days, cyclodextrin 5.0%): 0.364; change in absorbance when 500 μM of hydrogen peroxide was measured ([4]; 9 days, cyclodextrin 0.5%): 0.306; change in absorbance when 500 μM of hydrogen peroxide was measured ([4]; 9 days, cyclodextrin 2.0%): 0.311; change in absorbance when 500 μM of hydrogen peroxide was measured ([4]; 9 days, cyclodextrin 5.0%): 0.323 |
